Data from US20150178471A1, “IMPROVED CLINICAL EFFECT OF PHARMACEUTICAL PRODUCTS USING COMMUNICATION TOOL AND LIFE-STYLE FACTORS” (SCIENTIFICMED SWEDEN AB, priority 2012, published 2015).

Conditions: no combination product
Description: Development and test of a combination product based on the pharmaceutical Zoloft and a specifically adapted QFM, including life-style improving factors, with a dependent software application • a. Test objectives; improve cardiovascular and diabetes symptoms • b. Main intervention factors; • i. an improved level of physical activity • ii. increased awareness of food intake • iii. an increased well-being based on improved administration of Zoloft • c. Follow-up variables: Weight and HbA1c • d. Period of Time Using the Combination Product: Five Months. • e. Period of time using only the pharmaceutical, i.e. no combination product, prior to the period of using the combination product: Two months • f. Period of time using only the software application, i.e. no combination product, after the period of using the combination product: Two weeks
The used set of questions for the specific QFM, including life-style improving factors, in the combination product based on Zoloft was the following: • Adherence to Zoloft: • The patient was asked to answer a question whether or not he/she had been adherent to Zoloft, and which dose the patient had taken; “I have taken my Zoloft today with the dose 25 mg/50 mg/100 mg/150 mg or 200 mg”. • Physical activity: • The patient was asked initially to set up an individual goal with the purpose of achieving an increased effect. […]

In the case of `CN[C@H]1CC[C@@H](c2ccc(Cl)c(Cl)c2)c2ccccc21` [Zoloft, Sertralin], the HbA1c (test period when the patient only was taking Zoloft (two months)) is reported as “remained stable or slightly increased” and the Weight gained (test period when the patient only was taking Zoloft) is reported as 1-2%.
